Values quoted from earlier work in patent US11504321B2, “Process of coloring keratinous material comprising the use of an organosilicon compound, an effect pigment, a further coloring compound and a film-forming polymer II” (Henkel AG & Co. KGaA, priority 2019, dated 2022).

Settings: for solubility in water: 25° C.

Row | solubility in water (in words) (at 25° C.) | Compound | solubility in water
1 | – | CCN(Cc1cccc(S(=O)(=O)[O-])c1)c1ccc(C(=C2C=CC(=[N+](CC)Cc3cccc(S(=O)(=O)[O-])c3)C=C2)c2ccccc2S(=O)(=O)[O-])cc1.[Na+].[Na+] [Acid Blue 9] | more than 20 % by weight
2 | – | O=S(=O)([O-])c1ccc(N=Nc2c(O)ccc3ccccc23)cc1.[Na+] [Acid Orange 7, sodium salt of 4-[(2-hydroxy-1-naphthyl)azo]benzene sulphonate] | more than 7 g/L
3 | – | Nc1cc(S(=O)(=O)[O-])cc2cc(S(=O)(=O)[O-])c(N=Nc3ccccc3)c(O)c12.[Na+].[Na+] [Acid Red 33, disodium salt of 5-amino-4-hydroxy-3-(phenylazo)-naphthalene-2,7-disulphonate] | 2500 µg/mL
4 | – | O=C([O-])c1c(Cl)c(Cl)c(Cl)c(Cl)c1-c1c2c(Br)cc(=O)c(Br)c-2oc2c(Br)c(O)cc(Br)c12.O=C([O-])c1c(Cl)c(Cl)c(Cl)c(Cl)c1-c1c2c(Br)cc(=O)c(Br)c-2oc2c(Br)c(O)cc(Br)c12.[Na+].[Na+] [Acid Red 92, disodium salt of 3,4,5,6-tetrachloro-2-(1,4,5,8-tetrabromo-6-hydroxy-3-oxoxanthen-9-yl)benzoic acid] | greater than 10 g/L
5 | highly soluble in water | O=C([O-])C1=NN(c2ccc(S(=O)(=O)[O-])cc2)C(=O)C1N=Nc1ccc(S(=O)(=O)[O-])cc1.[Na+].[Na+].[Na+] (centres unmarked) [Acid Yellow 23, trisodium salt of 4,5-dihydro-5-oxo-1-(4-sulfophenyl)-4-((4-sulfophenyl)azo)-1H-pyrazole-3-carboxylic acid] | –
